Data on 35 molecules can be found in patent US10730889B2, “Amido spirocyclic amide and sulfonamide derivatives” (Forma TM, LLC, priority 2012, dated 2020).

In this assay the test system is A2780 cells. Briefly: In-vitro cell proliferation assay (SRB, 72 hours). In kind it is cell-based. Particulars: Homo sapiens, A2780 cells, 72 hours, SRB, read-out: Cell Proliferation (IC50).

SMILES strings stand for the structures. pIC50: −log10 of the molar value. Like-named read-outs stand apart in the source and are kept apart here.

Take `CCNC(=O)N1CCC2(CC1)CC2CNC(=O)c1cc2ccncc2o1` (centres unmarked) [Example 172, N-[[6-(ethylcarbamoyl)-6-azaspiro[2.5]octan-2-yl)methyl]furo[2,3-c]pyridine-2-carboxamide]: the pIC50 (A2780, 72 h) was 5.70.

For `O=C(NCC1CC12CCN(C(=O)NCc1ccc(Cl)cc1Cl)CC2)c1cc2ccncc2o1` (centres unmarked) [Example 173, N-[(6-[(2,4-dichlorophenyl)methylcarbamoyl]-6-azaspiro[2.5]octan-2-yl]methyl]furo[2,3-c]pyridine-2-carboxamide], for the setting “A2780, 72 h”, the pIC50 is 5.70. For `CC1(O)CC(CC(=O)N2CCC3(CC2)CC3CNC(=O)c2cc3ccncc3o2)C1` (centres unmarked) [Example 174, N-([6-[2-(3-hydroxy-3methylcyclobutyl)acetyl]-6-azaspiro[2.5]octan-1-yl]methyl)furo[2,3-c]pyridine-2-carboxamide], the pIC50 (A2780, 72 h) was 6.71.

In the case of `O=C(Cc1ccccn1)N1CCC2(CC1)CC2CNC(=O)N1Cc2ccncc2C1` (centres unmarked) [Example 176, N-[[6-[2-(2-pyridyl)acetyl]-6-azaspiro[2.5]octan-2-yl]methyl] 1,3-dihydropyrrolo[3,4-c]pyridine-2-carboxamide], the pIC50 (A2780, 72 h) was 7.47.

In the case of `O=C(Cc1cccnc1)N1CCC2(CC1)CC2CNC(=O)N1Cc2ccncc2C1` (centres unmarked) [Example 177], where the note is “A2780, 72 h”, the pIC50 was 7.46.

With `N#Cc1cccc(CC(=O)N2CCC3(CC2)CC3CNC(=O)N2Cc3ccncc3C2)c1` (centres unmarked) [Example 178, N-[[6-(2-(3-cyanophenyl)acetyl]-6-azaspiro[2.5]octan-2-yl]methyl]-1,3-dihydropyrrolo(3,4-c]pyridine-2-carboxamide], the pIC50 (A2780, 72 h) was 7.49. Consider `O=C(NCC1CC12CCN(C(=O)c1ccc(-n3cncn3)cc1)CC2)c1cc2ccncc2o1` (centres unmarked) [Example 179, N-[[6-[4-(1,2,4-triazol-1-yl)benzoyl]-6-azaspiro[2.5]octan-2-yl]methyl]furo[2,3-c]pyridine-2-carboxamide], for which the pIC50 (A2780, 72 h) was 7.60.

With `Cc1nccn1CC(=O)N1CCC2(CC1)CC2CNC(=O)c1cc2ccncc2o1` (centres unmarked) [Example 180, N-[[6-[2-(2-methylimidazol-1-yl)acetyl]-6-azaspiro[2.5]octan-2-yl]methyl]furo[2,3-c]pyridine-2-carboxamide], the pIC50 (A2780, 72 h) was 5.61. Still for that read-out and setting: to `Cc1nn(C)c(C)c1C(=O)N1CCC2(CC1)CC2CNC(=O)c1cc2ccncc2o1` (centres unmarked) [Example 181, N-[[6-(1,3,5-trimethylpyrazole-4-carbonyl)-6-azaspiro[2.5]octan-2-yl]methyl]furo[2,3-c]pyridine-2-carboxamide] belongs 8.48; to `CC(C)(C)NC(=O)N1CCC2(CC1)CC2CNC(=O)c1cc2ccncc2o1` (centres unmarked) [Example 182, N-[[6-(tert-butylcarbamoyl)-6-azaspiro[2.5]octan-2-yl]methyl]furo[2,3-c]pyndine-2-carboxamide], 5.70; to `CC(C)NC(=O)N1CCC2(CC1)CC2CNC(=O)c1cc2ccncc2o1` (centres unmarked) [Example 183, N-[[6-(isopropylcarbamoyl)-6-azaspiro[2.5]octan-2-yl]methyl]furo[2,3-c]pyridine-2-carboxamide], 5.70. As to `O=C(NCC1CC12CCN(C(=O)NCC1CCCCC1)CC2)c1cc2ccncc2o1` (centres unmarked) [Example 184, N-[[6-(cyclohexylmethylcarbamoyl)-6-azaspiro[2.5]octan-2-yl]methyl]furo[2,3-c]pyridine-2-carboxamide], the pIC50 (A2780, 72 h) is 5.70. Same read-out and setting: to `CCCNC(=O)N1CCC2(CC1)CC2CNC(=O)c1cc2ccncc2o1` (centres unmarked) [Example 185, N-[[6-(propylcarbamoyl)-6-azaspiro[2.5]octan-2-yl]methyl]furo[2,3-c]pyridine-2-carboxamide] belongs 5.70. Same read-out and setting: to `O=C(NCC1CC12CCN(C(=O)NC1CCCCC1)CC2)c1cc2ccncc2o1` (centres unmarked) [Example 186, N-[[6-(cyclohexylcarbamoyl)-6-azaspiro[2.5]octan-2-yl)methyl]furo[2,3-c]pyridine-2-carboxamide] belongs 6.14. On the same count and under the same terms, to `O=C(NCC1CC12CCN(C(=O)Nc1ccccc1)CC2)c1cc2ccncc2o1` (centres unmarked) [Example 187, N-[[6-(phenylcarbamoyl)-6-azaspiro[2.5]octan-2-yl]methyl]furo[2,3-c]pyridine-2-carboxamide] belongs 5.61; to `CC(C)N1CCC(CC(=O)N2CCC3(CC2)CC3CNC(=O)N2Cc3ccncc3C2)CC1` (centres unmarked) [Example 188, N-[[6-[2-(1-isopropyl-4-piperidyl)acetyl]-6-azaspiro[2.5]octan-2-yl]methyl]-1,3-dihydropyrrolo[3,4-c]pyridine-2-carboxamide], 7.34.

`O=C(Cc1ccncc1)N1CCC2(CC1)CC2CNC(=O)N1Cc2ccncc2C1` (centres unmarked) [Example 190, N-[[6-[2-(4-pyridyl)acetyl]-6-azaspiro[2.5]octan-2-yl]methyl]-1,3-dihydropyrrolo[3,4-c]pyridine-2-carboxamide]: the pIC50 (A2780, 72 h) is 7.29. For `N#CCC(=O)N1CCC2(CC1)CC2CNC(=O)N1Cc2ccncc2C1` (centres unmarked) [Example 191, N-[[6-(2-cyanoacetyl)-6-azaspiro[2.5]octan-2-yl]methyl]-1,3-dihydropyrrolo[3,4-c]pyridine-2-carboxamide], the pIC50 (A2780, 72 h) is 5.98. For `CC(C)(C)OC(=O)N1CCC2(CC1)CC(CNC(=O)c1cc3cnccc3[nH]1)C2` [Example 193, tert-butyl 2-[(1H-pyrrolo[3,2-c]pyridine-2-carbonylamino)methyl]-7-azaspiro[3.5]nonane-7-carboxylate], the pIC50 (A2780, 72 h) is 5.70.

On to `CC(C)(C)OC(=O)N1CCC2(CC1)CC(CNC(=O)c1cc3ccncc3o1)C2` [Example 194, tert-butyl 2-[(furo[2,3-c]pyridine-2-carbonylamino)methyl]-7-azaspiro[3.5]nonane-7-carboxylate], for which, for the setting “A2780, 72 h”, the pIC50 was 5.70. The same measure, in the same setting: to `CC1(CC(=O)N2CCC3(CC2)CC3CNC(=O)c2cc3ccncc3o2)COC1` (centres unmarked) [Example 195, N-[[6-[2-(3-methyloxetan-3-yl)acetyl]-6-azaspiro[2.5]octan-2-yl]methyl]furo[2,3-c]pyridine-2-carboxamide] belongs 6.66; to `O=C(CC1CCCCC1)N1CCC2(CC1)CC2CNC(=O)N1Cc2ccncc2C1` (centres unmarked) [Example 196, N-[[6-(2-cyclohexylacetyl)-6-azaspiro[2.5]octan-2-yl]methyl]-1,3-dihydropyrrolo[3,4-c]pyridine-2-carboxamide], 8.44; to `O=C(CN1CCOCC1)N1CCC2(CC1)CC2CNC(=O)N1Cc2ccncc2C1` (centres unmarked) [Example 198, N-[[6-(2-morpholinoacetyl)-6-azaspiro[2.5]octan-2-yl]methyl]-1,3-dihydropyrrolo[3,4-c]pyridine-2-carboxamide], 7.21.

For `CC(C)(C)OC(=O)N1CCC2(CC1)CC(CNC(=O)N1Cc3ccncc3C1)C2` [Example 200, tert-butyl 2-[(1,3-dihydropyrrolo[3,4-c]pyridine-2-carbonylamino)methyl]-7-azaspiro[3.5]nonane-7-carboxylate], the pIC50 (A2780, 72 h) was 7.61. Same read-out and setting: to `O=C(Cc1cc(F)cc(F)c1)N1CCC2(CC1)CC2CNC(=O)N1Cc2ccncc2C1` (centres unmarked) [Example 201, N-[[6-[2-(3,5-difluorophenyl)acetyl]-6-azaspiro[2.5]octan-2-yl]methyl]-1,3-dihydropyrrolo[3,4-c]pyridine-2-carboxamide] belongs 7.55; to `O=C(Cc1cccc(C(F)(F)F)c1)N1CCC2(CC1)CC2CNC(=O)N1Cc2ccncc2C1` (centres unmarked) [Example 202, N-[[6-[2-[3-(trifluoromethyl]phenyl]acetyl]-6-azaspiro[2.5]octan-2-yl]methyl]-1,3-dihydropyrrolo[3,4-c]pyridine-2-carboxamide], 7.55.

As for `CC(C)(C)NC(=O)N1CCC2(CC1)CC2CNC(=O)c1cc2cnccc2[nH]1` (centres unmarked) [Example 203, N-[[6-(tert-butylcarbamoyl)-6-azaspiro[2.5]octan-2-yl]methyl]-1H-pyrrolo[3,2-c]pyridine-2-carboxamide], under “A2780, 72 h”, the pIC50 was 5.70.

Regarding `COC(=O)C(C)(C)OC(=O)N1CCC2(CC1)CC2CNC(=O)c1cc2ccncc2o1` (centres unmarked) [Example 205, (2-methoxy-1,1-dimethyl-2-oxo-ethyl) 2-[(furo[2,3-c]pyridine-2-carbonylamino)methyl]-6-azaspiro[2.5]octane-6-carboxylate], the pIC50 (A2780, 72 h) is 6.89. In the case of `N#Cc1cccc(CC(=O)N2CCC3(CC2)CC3CNC(=O)c2cc3cnccc3[nH]2)c1` (centres unmarked) [Example 206, N-[[6-[2-(3-cyanophenyl)acetyl]-6-azaspiro[2.5]octan-2-yl]methyl]-1H-pyrrolo[3,2-c]pyridine-2-carboxamide], the pIC50 (A2780, 72 h) was 5.70. As for `N#Cc1ccc(CC(=O)N2CCC3(CC2)CC3CNC(=O)N2Cc3ccncc3C2)cc1` (centres unmarked) [Example 207, N-[[6-[2-(4-cyanophenyl)acetyl]-6-azaspiro[2.5]octan-2-yl]methyl]-1,3-dihydropyrrolo[3,4-c]pyridine-2-carboxamide], the pIC50 is 6.87. Regarding `O=C(NCC1CC12CCN(C(=O)Nc1ccccc1)CC2)N1Cc2ccncc2C1` (centres unmarked) [Example 208, N-[[6-(phenylcarbamoyl)-6-azaspiro[2.5]octan-2-yl]methyl]-1,3-dihydropyrrolo[3,4-c]pyridine-2-carboxamide], the pIC50 (A2780, 72 h) is 7.58.

For `O=C(NCc1ccccc1)N1CCC2(CC1)CC2CNC(=O)N1Cc2ccncc2C1` (centres unmarked) [Example 210, N-[[6-(benzylcarbamoyl)-6-azaspiro[2.5]octan-2-yl]methyl]-1,3-dihydropyrrolo[3,4-c]pyridine-2-carboxamide], where the note is “A2780, 72 h”, the pIC50 is 6.50. Take `O=C(NCC1CC12CCN(S(=O)(=O)Cc1ccccc1)CC2)N1Cc2ccncc2C1` (centres unmarked) [Example 211, N-[(6-benzylsulfonyl-6-azaspiro[2.5]octan-2-yl)methyl]-1,3-dihydropyrrolo[3,4-c]pyridine-2-carboxamide]: the pIC50 (A2780, 72 h) was 6.88. Turning to `CC(C)(CO)OC(=O)N1CCC2(CC1)CC2CNC(=O)c1cc2ccncc2o1` (centres unmarked) [Example 215, (2-hydroxy-1,1-dimethyl-ethyl) 2-[(furo[2,3-c]pyridine-2-carbonylamino)methyl]-6-azaspiro[2.5]octane-6-carboxylate], the pIC50 (A2780, 72 h) was 7.18. Same read-out and setting: to `N#Cc1ccc(CC(=O)N2CCC3(CC2)CC3CNC(=O)c2cc3cnccc3[nH]2)cc1` (centres unmarked) [Example 216, N-[[6-[2-(4-cyanophenyl)acetyl]-6-azaspiro[2.5]octan-2-yl]methyl]-1H-pyrrolo[3,2-c]pyridine-2-carboxamide] belongs 5.87.
